What follows are molecules tested against human APJ receptor (Homo sapiens (Human), UniProt P35414) (assay: [35S]GTPγS binding assay on membranes from CHO cells stably expressing human APJ receptor). Details: membranes of CHO cells stably expressing human APJ receptor, read-out: Activity hAPJ SPA EC50 IP.
Assay type: biochemical
Protocol: The human APJ receptor was cloned by polymerase chain reaction and the gene encoding the receptor was subcloned in pFLAG-CMV™-3 expression vector (Sigma, Saint Louis, Mo. USA) in-house at Amgen. A GTPγS binding assay was performed on membranes prepared from CHO cells stably expressing human APJ receptor. The optimum experimental conditions for the concentrations of GDP, MgCl2, and NaCl in the assay buffer were initially determined. […] Incubation was at RT for 90 min and the microplate was read using a ViewLux™ ultra HTS Microplate Imager (PerkinElmer, Inc.). All the results presented are means of several independent experiments and analyzed by non-linear regression methods using the commercially available program Prism (GraphPad, San Diego, Calif.) providing the EC50 values detailed in Table 27.

human APJ receptor, sequence (P35414 whole entry): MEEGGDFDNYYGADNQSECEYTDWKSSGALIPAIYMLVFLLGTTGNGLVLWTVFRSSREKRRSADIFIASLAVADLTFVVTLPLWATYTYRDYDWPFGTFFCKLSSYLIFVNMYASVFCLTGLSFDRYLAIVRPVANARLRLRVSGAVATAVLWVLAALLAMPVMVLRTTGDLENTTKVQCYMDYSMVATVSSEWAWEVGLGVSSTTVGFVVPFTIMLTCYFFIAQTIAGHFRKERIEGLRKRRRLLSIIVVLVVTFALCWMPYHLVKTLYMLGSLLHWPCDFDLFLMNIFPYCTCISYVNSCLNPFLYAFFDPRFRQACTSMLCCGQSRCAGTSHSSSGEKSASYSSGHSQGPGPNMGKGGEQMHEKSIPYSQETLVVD

Structure (SMILES)	EC50
COc1cccc(-c2nnc(NS(=O)(=O)[C@@H](C)[C@H](C)c3ncc(Cl)cn3)n2[C@H](c2conc2C)C2CC2)n1 (mixture of isomers) [Example 228.0, (2S,3R)-3-(5-chloro-2-pyrimidinyl)-N-(4-((S)-cyclopropyl(3-methyl-1,2-oxazol-4-yl)methyl)-5-(6-methoxy-2-pyridinyl)-4H-1,2,4-triazol-3-yl)-2-butanesulfonamide and (2S,3R)-3-(5-chloro-2-pyrimidinyl)-N-(4-((R)-cyclopropyl(3-methyl-1,2-oxazol-4-yl)methyl)-5-(6-methoxy-2-pyridinyl)-4H-1,2,4-triazol-3-yl)-2-butanesulfonamide]	0.88 nM
CO[C@H](c1ncc(Cl)cn1)[C@H](C)S(=O)(=O)Nc1nnc(-c2cncc(C)c2)n1C[C@H]1CCCCO1 (mixture of isomers) [Example 299.0, (1R,2S)-1-(5-chloropyrimidin-2-yl)-1-methoxy-N-(5-(5-methylpyridin-3-yl)-4-(((R)-tetrahydro-2H-pyran-2-yl)methyl)-4H-1,2,4-triazol-3-yl)propane-2-sulfonamide and (1R,2S)-1-(5-chloropyrimidin-2-yl)-1-methoxy-N-(5-(5-methylpyridin-3-yl)-4-(((S)-tetrahydro-2H-pyran-2-yl)methyl)-4H-1,2,4-triazol-3-yl)propane-2-sulfonamide]	120 nM
COc1cccc(-c2nnc(NS(=O)(=O)[C@@H](C)[C@H](C)c3ncc(Cl)cn3)n2[C@@H](C)c2ccon2)n1 (racemic) [Example 267.0, (2S,3R)-3-(5-chloropyrimidin-2-yl)-N-(4-((R)-1-(isoxazol-3-yl)ethyl)-5-(6-methoxypyridin-2-yl)-4H-1,2,4-triazol-3-yl)butane-2-sulfonamide or (2S,3R)-3-(5-chloropyrimidin-2-yl)-N-(4-((S)-1-(isoxazol-3-yl)ethyl)-5-(6-methoxypyridin-2-yl)-4H-1,2,4-triazol-3-yl)butane-2-sulfonamide]	4.2 nM
COc1cccc(-c2nnc(NS(=O)(=O)[C@@H](C)[C@H](C)c3ncc(Cl)cn3)n2[C@@H](C)c2ccon2)n1 (racemic) [Example 268.0, (2S,3R)-3-(5-chloropyrimidin-2-yl)-N-(4-((R)-1-(isoxazol-3-yl)ethyl)-5-(6-methoxypyridin-2-yl)-4H-1,2,4-triazol-3-yl)butane-2-sulfonamide or (2S,3R)-3-(5-chloropyrimidin-2-yl)-N-(4-((S)-1-(isoxazol-3-yl)ethyl)-5-(6-methoxypyridin-2-yl)-4H-1,2,4-triazol-3-yl)butane-2-sulfonamide]	2.7 nM
COc1cccc(-c2nnc(NS(=O)(=O)[C@@H](C)[C@@H](OC(C)C)c3ncc(C)cn3)n2C[C@H]2CCCO2)n1 (racemic) [Example 277.0, (1S,2S)-1-isopropoxy-N-(5-(6-methoxypyridin-2-yl)-4-(((R)-tetrahydrofuran-2-yl)methyl)-4H-1,2,4-triazol-3-yl)-1-(5-methylpyrimidin-2-yl)propane-2-sulfonamide or (1S,2S)-1-isopropoxy-N-(5-(6-methoxypyridin-2-yl)-4-(((S)-tetrahydrofuran-2-yl)methyl)-4H-1,2,4-triazol-3-yl)-1-(5-methylpyrimidin-2-yl)propane-2-sulfonamide]	14 nM
COc1cccc(-c2nnc(NS(=O)(=O)[C@@H](C)[C@@H](OC(C)C)c3ncc(C)cn3)n2C[C@H]2CCCO2)n1 (racemic) [Example 278.0, (1S,2S)-1-isopropoxy-N-(5-(6-methoxypyridin-2-yl)-4-(((R)-tetrahydrofuran-2-yl)methyl)-4H-1,2,4-triazol-3-yl)-1-(5-methylpyrimidin-2-yl)propane-2-sulfonamide or (1S,2S)-1-isopropoxy-N-(5-(6-methoxypyridin-2-yl)-4-(((S)-tetrahydrofuran-2-yl)methyl)-4H-1,2,4-triazol-3-yl)-1-(5-methylpyrimidin-2-yl)propane-2-sulfonamide]	16 nM
COc1cccc(-c2nnc(NS(=O)(=O)[C@@H](C)[C@H](C)c3ncc(Cl)cn3)n2C[C@H]2CCCO2)n1 (racemic) [Example 281.0, (2S,3R)-3-(5-chloropyrimidin-2-yl)-N-(5-(6-methoxypyridin-2-yl)-4-(((R)-tetrahydrofuran-2-yl)methyl)-4H-1,2,4-triazol-3-yl)butane-2-sulfonamide or (2S,3R)-3-(5-chloropyrimidin-2-yl)-N-(5-(6-methoxypyridin-2-yl)-4-(((S)-tetrahydrofuran-2-yl)methyl)-4H-1,2,4-triazol-3-yl)butane-2-sulfonamide]	110 nM
COc1cccc(-c2nnc(NS(=O)(=O)[C@@H](C)[C@H](C)c3ncc(Cl)cn3)n2C[C@H]2CCCO2)n1 (racemic) [Example 282.0, (2S,3R)-3-(5-chloropyrimidin-2-yl)-N-(5-(6-methoxypyridin-2-yl)-4-(((R)-tetrahydrofuran-2-yl)methyl)-4H-1,2,4-triazol-3-yl)butane-2-sulfonamide or (2S,3R)-3-(5-chloropyrimidin-2-yl)-N-(5-(6-methoxypyridin-2-yl)-4-(((S)-tetrahydrofuran-2-yl)methyl)-4H-1,2,4-triazol-3-yl)butane-2-sulfonamide]	54 nM
COc1cccc(-c2nnc(NS(=O)(=O)[C@@H](C)[C@H](OC)c3ncc(Cl)cn3)n2C[C@H]2CCCCO2)n1 (racemic) [Example 287.0, (1R,2S)-1-(5-chloropyrimidin-2-yl)-1-methoxy-N-(5-(6-methoxypyridin-2-yl)-4-(((R)-tetrahydro-2H-pyran-2-yl)methyl)-4H-1,2,4-triazol-3-yl)propane-2-sulfonamide or (1R,2S)-1-(5-chloropyrimidin-2-yl)-1-methoxy-N-(5-(6-methoxypyridin-2-yl)-4-(((S)-tetrahydro-2H-pyran-2-yl)methyl)-4H-1,2,4-triazol-3-yl)propane-2-sulfonamide]	5.9 nM
COc1cccc(-c2nnc(NS(=O)(=O)[C@@H](C)[C@H](OC)c3ncc(Cl)cn3)n2C[C@H]2CCCCO2)n1 (racemic) [Example 288.0, (1R,2S)-1-(5-chloropyrimidin-2-yl)-1-methoxy-N-(5-(6-methoxypyridin-2-yl)-4-(((R)-tetrahydro-2H-pyran-2-yl)methyl)-4H-1,2,4-triazol-3-yl)propane-2-sulfonamide or (1R,2S)-1-(5-chloropyrimidin-2-yl)-1-methoxy-N-(5-(6-methoxypyridin-2-yl)-4-(((S)-tetrahydro-2H-pyran-2-yl)methyl)-4H-1,2,4-triazol-3-yl)propane-2-sulfonamide]	3.3 nM
COc1cccc(-c2nnc(NS(=O)(=O)[C@@H](C)[C@H](C)c3ncc(Cl)cn3)n2[C@H](C)c2cnn(C)c2)n1 (racemic) [Example 297.0, (2S,3R)-3-(5-chloropyrimidin-2-yl)-N-(5-(6-methoxypyridin-2-yl)-4-((R)-1-(1-methyl-1H-pyrazol-4-yl)ethyl)-4H-1,2,4-triazol-3-yl)butane-2-sulfonamide or (2S,3R)-3-(5-chloropyrimidin-2-yl)-N-(5-(6-methoxypyridin-2-yl)-4-((S)-1-(1-methyl-1H-pyrazol-4-yl)ethyl)-4H-1,2,4-triazol-3-yl)butane-2-sulfonamide]	4.3 nM
COc1cccc(-c2nnc(NS(=O)(=O)[C@@H](C)[C@H](C)c3ncc(Cl)cn3)n2[C@H](C)c2cnn(C)c2)n1 (racemic) [Example 298.0, (2S,3R)-3-(5-chloropyrimidin-2-yl)-N-(5-(6-methoxypyridin-2-yl)-4-((R)-1-(1-methyl-1H-pyrazol-4-yl)ethyl)-4H-1,2,4-triazol-3-yl)butane-2-sulfonamide or (2S,3R)-3-(5-chloropyrimidin-2-yl)-N-(5-(6-methoxypyridin-2-yl)-4-((S)-1-(1-methyl-1H-pyrazol-4-yl)ethyl)-4H-1,2,4-triazol-3-yl)butane-2-sulfonamide]	1.5 nM
COc1cccc(-c2nnc(NS(=O)(=O)[C@@H](C)[C@H](OC)c3ncc(Cl)cn3)n2C[C@@H]2COCCO2)n1 (racemic) [Example 303.0, (1R,2S)-N-(4-(((R)-1,4-dioxan-2-yl)methyl)-5-(6-methoxypyridin-2-yl)-4H-1,2,4-triazol-3-yl)-1-(5-chloropyrimidin-2-yl)-1-methoxypropane-2-sulfonamide or (1R,2S)-N-(4-(((S)-1,4-dioxan-2-yl)methyl)-5-(6-methoxypyridin-2-yl)-4H-1,2,4-triazol-3-yl)-1-(5-chloropyrimidin-2-yl)-1-methoxypropane-2-sulfonamide]	27 nM
COc1cccc(-c2nnc(NS(=O)(=O)[C@@H](C)[C@H](OC)c3ncc(Cl)cn3)n2C[C@@H]2COCCO2)n1 (racemic) [Example 304.0, (1R,2S)-N-(4-(((R)-1,4-dioxan-2-yl)methyl)-5-(6-methoxypyridin-2-yl)-4H-1,2,4-triazol-3-yl)-1-(5-chloropyrimidin-2-yl)-1-methoxypropane-2-sulfonamide or (1R,2S)-N-(4-(((S)-1,4-dioxan-2-yl)methyl)-5-(6-methoxypyridin-2-yl)-4H-1,2,4-triazol-3-yl)-1-(5-chloropyrimidin-2-yl)-1-methoxypropane-2-sulfonamide]	20 nM
COc1cccc(-c2nnc(NS(=O)(=O)[C@@H](C)[C@H](OC)c3ncc(Cl)cn3)n2[C@@H](C)c2c(C)noc2C)n1 (racemic) [Example 309.0, (1R,2S)-1-(5-chloropyrimidin-2-yl)-N-(4-((R)-1-(3,5-dimethylisoxazol-4-yl)ethyl)-5-(6-methoxypyridin-2-yl)-4H-1,2,4-triazol-3-yl)-1-methoxypropane-2-sulfonamide or (1R,2S)-1-(5-chloropyrimidin-2-yl)-N-(4-((S)-1-(3,5-dimethylisoxazol-4-yl)ethyl)-5-(6-methoxypyridin-2-yl)-4H-1,2,4-triazol-3-yl)-1-methoxypropane-2-sulfonamide]	9.2 nM
